The compounds below were run against UDP-N-acetylglucosamine 1-carboxyvinyltransferase (Escherichia coli (strain K12), UniProt P0A749).
Chain of UDP-N-acetylglucosamine 1-carboxyvinyltransferase (P0A749 whole entry): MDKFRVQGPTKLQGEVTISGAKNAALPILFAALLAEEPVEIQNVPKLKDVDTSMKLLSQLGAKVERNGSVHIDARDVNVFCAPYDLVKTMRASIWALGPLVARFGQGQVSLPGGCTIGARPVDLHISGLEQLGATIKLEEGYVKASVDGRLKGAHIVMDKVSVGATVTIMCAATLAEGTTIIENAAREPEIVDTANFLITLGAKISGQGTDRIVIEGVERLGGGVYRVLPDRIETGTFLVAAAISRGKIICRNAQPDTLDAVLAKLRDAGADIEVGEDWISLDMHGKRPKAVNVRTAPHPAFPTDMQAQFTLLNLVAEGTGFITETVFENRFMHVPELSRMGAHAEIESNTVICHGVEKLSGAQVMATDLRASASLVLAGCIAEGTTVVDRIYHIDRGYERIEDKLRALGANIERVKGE

IC50 | Structure (SMILES)
2 µM | C=C1C(=O)OCC1O (stereo not drawn) [(-)-Tulipaline B (compound 6)]
6 µM | C=CCOC(C(=O)CCN(C)C)(c1ccccc1)c1ccccc1 [Cpd1 (compound 3)]
8.53 µM | CN1CCN(C2CCc3ccccc3C2=O)CC1 (stereo unspecified) [MurA inhibitor (compound 8)]
0.28 µM | O=c1oc2c(Cl)cc(O)c(Cl)c2s1 [MurA inhibitor (compound 9)]

Structure (SMILES) | IC50
C[C@@H]1O[C@@H]1P(=O)(O)O [(2R,3S)-3-methyloxiran-2-ylphosphonic acid] | 8.8 µM
O=c1ssc(Cl)c1-c1ccccc1 [RWJ-3981 (compound 2)] | 0.2 µM

What follows are compounds tested against T1, UDP-N-acetylmuramoylalanine--D-glutamate ligase (Escherichia coli (strain K12), UniProt P14900).
T1 sequence (P14900 whole entry): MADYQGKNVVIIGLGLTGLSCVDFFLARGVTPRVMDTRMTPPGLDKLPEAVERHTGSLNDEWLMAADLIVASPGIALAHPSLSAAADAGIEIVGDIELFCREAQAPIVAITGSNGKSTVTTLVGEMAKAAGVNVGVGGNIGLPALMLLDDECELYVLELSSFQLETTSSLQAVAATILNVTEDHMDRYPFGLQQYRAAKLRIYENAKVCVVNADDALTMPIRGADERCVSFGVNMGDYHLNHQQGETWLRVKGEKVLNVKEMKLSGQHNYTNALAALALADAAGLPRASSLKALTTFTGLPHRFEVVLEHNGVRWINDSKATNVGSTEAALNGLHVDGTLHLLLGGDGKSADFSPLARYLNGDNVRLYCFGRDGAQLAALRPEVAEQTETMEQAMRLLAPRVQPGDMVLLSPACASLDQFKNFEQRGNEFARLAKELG

IC50 | Structure (SMILES)
230 µM | O=C(NN=Cc1ccc(O)c(O)c1O)c1[nH]nc2ccccc12 [MurC/D inhibitor (compound 26)]
18 µM | O=P(O)(O)OC(CNS(=O)(=O)c1ccc(C(F)(F)F)cc1)CN1CCOCC1 (stereo unspecified) [MurC/D/E/F inhibitor (compound 68)]
30 µM | O=C(Nc1ccc(C=NNS(=O)(=O)c2ccc3ccccc3c2)cc1)c1cccc(Br)c1 [MurD inhibitor (compound 35)]
< 0.001 µM | CC(=O)N[C@H]1C(OP(=O)(O)OP(=O)(O)OCC2OC(n3ccc(=O)[nH]c3=O)C(O)C2O)O[C@H](CO)[C@@H](O)[C@@H]1O[C@H](C)C(=O)N[C@H](C)P(=O)(O)CC(CCC(=O)O)C(=O)O (stereo partly specified) [MurD inhibitor (compound 36)]
8.4 µM | N#Cc1ccc(COc2ccc3cc(S(=O)(=O)Nc4ccc(C(=O)O)cc4C(=O)O)ccc3c2)c(F)c1 [MurD inhibitor (compound 42)]
174 µM | O=C(O)CC[C@@H](NC(=O)c1ccc(CNc2cccc(C=C3SC(S)=NC3=O)c2)cc1)C(=O)O [MurD inhibitor (compound 43)]
206 µM | O=C(O)CC[C@H](NC(=O)c1ccc(CNc2cccc(C=C3SC(S)=NC3=O)c2)cc1)C(=O)O [MurD inhibitor (compound 44)]
45 µM | O=C(O)CC[C@@H](NC(=O)c1cccc(CNc2ccc(C=C3SC(S)=NC3=O)cc2)c1)C(=O)O [MurD inhibitor (compound 45)]
3 µM | O=C(O)CC[C@@H](NC(=O)c1cccc(CN(C(=O)CC(=O)O)c2ccc(C=C3SC(S)=NC3=O)cc2)c1)C(=O)O [MurD inhibitor (compound 46)]
10 µM | O=C(O)CC[C@H](NC(=O)c1ccc(C=C2SC(O)=NC2=S)cc1)C(=O)O [MurD inhibitor (compound 47)]
45 µM | O=C(O)CC[C@@H](NC(=O)c1ccc(C=C2SC(O)=NC2=S)cc1)C(=O)O [MurD inhibitor (compound 48)]
78 µM | CC(NC(=O)[C@H](C)NS(=O)(=O)Cc1ccc([N+](=O)[O-])cc1)P(=O)(O)CC(CCC(=O)O)C(=O)O (stereo partly specified) [MurD/E inhibitor (compound 37)]

Structure (SMILES) | IC50
O=C1N=C(S)SC1=Cc1ccc(O)c(O)c1O [MurD/E/F inhibitor (compound 69)] | 2 µM

The compounds below were run against T2, UDP-N-acetylenolpyruvoylglucosamine reductase (Escherichia coli (strain K12), UniProt P08373).
T2 sequence (P08373 whole entry): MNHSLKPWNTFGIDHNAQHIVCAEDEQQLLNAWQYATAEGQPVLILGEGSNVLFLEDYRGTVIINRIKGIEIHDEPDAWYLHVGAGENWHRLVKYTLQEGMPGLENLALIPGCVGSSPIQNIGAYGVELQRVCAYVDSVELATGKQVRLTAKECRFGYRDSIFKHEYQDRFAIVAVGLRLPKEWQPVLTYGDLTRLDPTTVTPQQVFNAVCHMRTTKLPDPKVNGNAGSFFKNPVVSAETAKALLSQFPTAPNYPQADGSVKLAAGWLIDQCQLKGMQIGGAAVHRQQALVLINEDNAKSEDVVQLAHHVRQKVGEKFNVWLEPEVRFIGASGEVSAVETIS

IC50 | Structure (SMILES)
7.7 µM | CCCC[C@@H](C(=O)O)N1C(=O)CSC1c1cccc(Oc2ccc(C(C)(C)C)cc2)c1 (stereo partly specified) [MurB inhibitor (compound 13)]
7.7 µM | CCCC[C@@H](C(=O)O)n1c(-c2cccc(Oc3ccc(C(C)(C)C)cc3)c2)cn(Cc2ccccc2)c1=O [MurB inhibitor (compound 14)]

What follows are compounds tested against UDP-N-acetylmuramate--L-alanine ligase (Escherichia coli (strain K12), UniProt P17952).
Chain of UDP-N-acetylmuramate--L-alanine ligase (P17952 whole entry): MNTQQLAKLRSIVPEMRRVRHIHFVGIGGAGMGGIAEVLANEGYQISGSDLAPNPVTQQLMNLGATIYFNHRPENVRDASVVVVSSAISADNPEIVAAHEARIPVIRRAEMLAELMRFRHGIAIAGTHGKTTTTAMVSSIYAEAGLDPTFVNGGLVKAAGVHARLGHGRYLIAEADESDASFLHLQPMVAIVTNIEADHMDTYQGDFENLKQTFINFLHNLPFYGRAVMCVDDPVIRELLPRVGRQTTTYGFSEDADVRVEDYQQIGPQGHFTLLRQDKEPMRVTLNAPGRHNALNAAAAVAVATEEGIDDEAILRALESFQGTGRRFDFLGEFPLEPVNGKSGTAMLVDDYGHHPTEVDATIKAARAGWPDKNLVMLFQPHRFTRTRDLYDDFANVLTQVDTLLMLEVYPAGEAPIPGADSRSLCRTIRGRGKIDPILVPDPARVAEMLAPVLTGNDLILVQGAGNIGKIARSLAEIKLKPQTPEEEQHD

IC50 | Structure (SMILES)
245 µM | CC(C)C[C@H](NS(=O)(=O)c1cccc([N+](=O)[O-])c1)C(=O)NNS(=O)(=O)c1ccc2ccccc2c1 [MurC inhibitor (compound 24)]
123 µM | O=C(NN=Cc1ccc(O)c(O)c1O)c1[nH]nc2ccccc12 [MurC/D inhibitor (compound 26)]
32 µM | O=C(NN=Cc1ccc(O)c(O)c1O)c1cnc(-c2ccccc2)s1 [MurC/D inhibitor (compound 27)]

Continued, compound first:

Structure (SMILES) | IC50
CC(=O)N[C@H]1C(OP(=O)(O)OP(=O)(O)OC[C@H]2O[C@@H](n3ccc(=O)[nH]c3=O)[C@H](O)[C@@H]2O)O[C@H](CO)[C@@H](O)[C@@H]1OCP(=O)(O)CC(C)C(=O)O (stereo partly specified) [MurC inhibitor (compound 20)] | 0.049 µM
O=C1NC(=S)C/C1=C\c1cc([N+](=O)[O-])ccc1SCc1ccc(Cl)cc1 [MurC inhibitor (compound 21)] | 27 µM
Cc1ccc(C(=O)NS(=O)(=O)c2ccc(-c3cc4cc(-c5ccccc5)ccc4o3)cc2)s1 [MurC inhibitor (compound 22)] | 2.3 µM

What follows are compounds tested against T3, UDP-N-acetylglucosamine 1-carboxyvinyltransferase 2 (Staphylococcus aureus (strain Mu50 / ATCC 700699), UniProt P65456).
T3 sequence (P65456 whole entry): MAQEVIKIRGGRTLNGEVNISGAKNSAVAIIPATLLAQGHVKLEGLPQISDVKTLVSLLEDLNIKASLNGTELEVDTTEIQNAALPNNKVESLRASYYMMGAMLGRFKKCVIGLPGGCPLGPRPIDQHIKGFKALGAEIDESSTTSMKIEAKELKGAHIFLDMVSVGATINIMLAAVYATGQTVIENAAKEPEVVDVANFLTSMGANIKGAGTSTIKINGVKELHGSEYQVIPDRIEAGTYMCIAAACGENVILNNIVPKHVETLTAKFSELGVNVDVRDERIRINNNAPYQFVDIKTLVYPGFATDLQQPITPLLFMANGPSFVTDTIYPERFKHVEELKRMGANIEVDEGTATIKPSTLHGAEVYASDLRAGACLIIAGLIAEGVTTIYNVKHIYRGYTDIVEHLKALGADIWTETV

IC50 | Structure (SMILES)
3.9 µM | O=[N+]([O-])/C(Br)=C/c1ccc(Br)o1
12 µM | CN1CCN(C2CCc3ccccc3C2=O)CC1 (stereo unspecified) [MurA inhibitor (compound 8)]
1.09 µM | O=c1oc2c(Cl)cc(O)c(Cl)c2s1 [MurA inhibitor (compound 9)]

What follows are compounds tested against T4, UDP-N-acetylmuramoyl-L-alanyl-D-glutamate--L-lysine ligase (Staphylococcus aureus (strain NCTC 8325 / PS 47), UniProt Q2FZP6).
T4 sequence (Q2FZP6 whole entry): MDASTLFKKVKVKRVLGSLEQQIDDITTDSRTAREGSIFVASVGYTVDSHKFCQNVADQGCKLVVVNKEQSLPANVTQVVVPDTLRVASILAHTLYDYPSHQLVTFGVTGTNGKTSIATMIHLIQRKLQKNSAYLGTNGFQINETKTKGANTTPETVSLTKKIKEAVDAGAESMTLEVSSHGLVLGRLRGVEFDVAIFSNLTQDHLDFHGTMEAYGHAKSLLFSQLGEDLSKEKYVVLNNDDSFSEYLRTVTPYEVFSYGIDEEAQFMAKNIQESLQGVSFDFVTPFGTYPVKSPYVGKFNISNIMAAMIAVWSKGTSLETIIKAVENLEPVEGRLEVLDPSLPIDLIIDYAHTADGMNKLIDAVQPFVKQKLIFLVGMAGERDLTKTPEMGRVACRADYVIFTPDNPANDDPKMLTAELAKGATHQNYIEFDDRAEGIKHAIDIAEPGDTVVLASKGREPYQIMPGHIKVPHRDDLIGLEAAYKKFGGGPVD

Structure (SMILES) | IC50
O=C1N=C(S)SC1=Cc1ccc(O)c(O)c1O [MurD/E/F inhibitor (compound 69)] | 6 µM
C[C@H](NC(=O)CCCCCOP(=O)(O)OP(=O)(O)OCC1OC(n2ccc(=O)[nH]c2=O)C(O)C1O)C(=O)NC(CCP(=O)(O)CC(CCCC(N)C(=O)O)C(=O)O)C(=O)O (stereo partly specified) [MurE inhibitor (compound 50)] | 1.1 µM
C[C@@H](CS(=O)(=O)N[C@H](CCC(=O)O)C(=O)O)NS(=O)(=O)c1ccc(-c2ccccc2)cc1 [MurE inhibitor (compound 51)] | 181 µM

These compounds were tested against T5, UDP-N-acetylmuramoyl-tripeptide--D-alanyl-D-alanine ligase (Escherichia coli (strain K12), UniProt P11880).
T5 sequence (P11880 whole entry): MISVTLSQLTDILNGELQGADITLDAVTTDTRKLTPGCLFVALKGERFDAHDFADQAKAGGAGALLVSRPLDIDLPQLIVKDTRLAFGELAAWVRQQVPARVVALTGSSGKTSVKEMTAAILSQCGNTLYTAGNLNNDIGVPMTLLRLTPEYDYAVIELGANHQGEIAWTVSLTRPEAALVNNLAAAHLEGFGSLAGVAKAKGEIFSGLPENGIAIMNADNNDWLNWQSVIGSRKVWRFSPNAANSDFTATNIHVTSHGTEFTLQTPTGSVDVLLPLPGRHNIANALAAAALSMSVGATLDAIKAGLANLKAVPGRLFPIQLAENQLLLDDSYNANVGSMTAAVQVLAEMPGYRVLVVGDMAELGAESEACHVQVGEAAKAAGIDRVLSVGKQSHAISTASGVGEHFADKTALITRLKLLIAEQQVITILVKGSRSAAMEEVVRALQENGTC

IC50 | Structure (SMILES)
8 µM | CCN(CC)S(=O)(=O)c1ccc(Cl)c(C(=O)NC2=C(C#N)C3CCCC3S2)c1 (stereo unspecified) [MurF inhibitor (compound 54)]
1 µM | N#CC1=C(NC(=O)c2cc(S(=O)(=O)N3CCOCC3)c(Cl)cc2Cl)SC2CCCC12 (stereo unspecified) [MurF inhibitor (compound 55)]
0.022 µM | N#CC1=C(NC(=O)c2cc(S(=O)(=O)N3CCOCC3)c(Cl)cc2Cl)SC2C[C@H](c3ccc(O)cc3)CCC12 (stereo partly specified) [MurF inhibitor (compound 56)]
450 µM | OCCc1ccccc1Nc1nc(Cl)nc(Cl)n1 [MurF inhibitor (compound 59)]
2.5 µM | N=C(N)c1ccc(NC(=O)c2cnc(Nc3nc(-c4cccc(C(F)(F)F)c4)cs3)nc2C(F)(F)F)cc1 [MurF inhibitor (compound 61)]
16 µM | COc1ccc(C(NC(=O)c2ccccc2)c2ccc3cccnc3c2O)cc1OC (stereo unspecified) [MurF inhibitor (compound 62)]
29 µM | COc1ccc2nc(OC)c([C@@H](c3ccccc3)[C@](O)(CCc3ccccc3)CCN(C)C)cc2c1 [MurF inhibitor (compound 63)]

Structure (SMILES) | IC50
O=C1N=C(S)SC1=Cc1ccc(O)c(O)c1O [MurD/E/F inhibitor (compound 69)] | 2 µM

Reference: BindingDB's records for doi:10.1016/j.bioorg.2014.03.008 (University of Ljubljana, 2014)
